Measured values taken from patent US20090087845A1, “Genetic Markers Of True Low Birth Weight” (priority 2005, published 2009).
Where “and” joins values, the source holds several entries; their conditions need not be identical. Identical values can stand only once.

Test system: placental gene expression
Experiment: Placental gene expression (Affymetrix Rat Genome Chip 230.2) after SSRI (fluoxetine) exposure throughout gestation
Assay type: in vivo
Procedure: Gene expression data from pregnant rats under different forms of dietary restriction was gathered. […] (N=8) • Group 2 (CR50): Rats Given 50% of their Normal Daily Intake of Food. (N=5) • Group 3 (CR70): Rats Given 70% of their Normal Daily Intake of Food. […] (N=6) Placentas from the rats of each Group were harvested on Day 21 of gestation. RNA was extracted and gene expression was measured based on hybridization of RNA to Affymetrix Rat Genome Chips™ (230.2) (Affymetrix, Santa Clara, Calif.).
In order to determine whether placental gene expression profiling can be used to identify other prenatal exposures such as toxicants and drugs, a group of rats with drug exposure was monitored as described above. […] As with control, CR50, CR70, and HF groups, placentas from the mothers were sampled after 21 days of gestation and gene expression monitored utilizing an Affymetrix Rat Genome Chip.

[1] = placenta, SSRI exposure during gestation, each SSRI column = one sample

Compound: CNCCC(Oc1ccc(C(F)(F)F)cc1)c1ccccc1 (centres unmarked) [fluoxetine, Fluoxetine]
- Probeset 1391509_at expression (SSRI exposure during gestation): 8.436 and 8.44 and 8.929 and 8.687 and 8.508 and 8.574
- Probeset 1391678_at expression (SSRI exposure during gestation): 7.246 and 7.316 and 7.365 and 7.475 and 7.387 and 7.426
- Probeset 1391962_at expression (SSRI exposure during gestation): 3.906 and 3.859 and 3.835 and 3.838 and 3.857 and 3.918
- Probeset 1392950_at expression (SSRI exposure during gestation): 3.887 and 3.884 and 3.809 and 3.812 and 3.82 and 3.885
- Probeset 1393104_at expression (SSRI exposure during gestation): 5.976
- Probeset 1393428_at expression (SSRI exposure during gestation): 6.023 and 6.1025 and 6.34 and 6.137 and 6.165 and 5.935
- Probeset 1393438_at expression (SSRI exposure during gestation): 5.322 and 5.381 and 5.359 and 5.376 and 5.366 and 5.287
- Probeset 1393539_at expression (SSRI exposure during gestation): 5.342 and 5.53 and 5.247 and 5.255 and 5.363 and 5.602
- Probeset 1393939_at expression (SSRI exposure during gestation): 4.456 and 4.322 and 4.388 and 4.385 and 4.239 and 4.386
- Probeset 1393989_at expression (SSRI exposure during gestation): 7.171 and 6.991 and 7.091 and 6.963 and 7.057 and 6.799
- Probeset 1394343_s_at expression (SSRI exposure during gestation): 3.578 and 3.612 and 3.498 and 3.586 and 3.588 and 3.604
- Probeset 1394383_at expression (SSRI exposure during gestation): 6.226 and 6.542 and 6.277 and 5.892 and 6.155 and 6.124
- Probeset 1394790_at expression (SSRI exposure during gestation): 6.517 and 6.383 and 6.546 and 6.377 and 6.521 and 6.433
- Probeset 1394887_x_at expression (SSRI exposure during gestation): 4.369 and 4.298 and 4.253 and 4.258 and 4.269 and 4.251
- Probeset 1395316_at expression (SSRI exposure during gestation): 7.327 and 7.192 and 7.672 and 7.075 and 7.225 and 7.176
- Probeset 1396130_at expression (SSRI exposure during gestation): 3.997 and 4.12 and 3.89 and 3.815 and 3.974 and 3.921
- Probeset 1397268_at expression (SSRI exposure during gestation): 5.157 and 5.261 and 5.068 and 4.99 and 5.173 and 4.92
- Probeset 1397587_at expression (SSRI exposure during gestation): 7.542 and 7.104 and 7.072 and 7.17 and 7.225 and 6.496
- Probeset 1397676_at expression (SSRI exposure during gestation): 4.933 and 5.266 and 5.715 and 5.112 and 5.274 and 5.346
- Probeset 1397934_at expression (SSRI exposure during gestation): 8.299 and 8.221 and 8.122 and 8.187 (2×) and 8.222
- Probeset 1397956_at expression (SSRI exposure during gestation): 6.013 and 6.031 and 6.26 and 5.9 and 5.674 and 6.039
- Probeset 1398025_at expression (SSRI exposure during gestation): 7.379 and 7.277 and 7.364 and 7.102 and 7.172 and 7.095
- Probeset 1398136_at expression (SSRI exposure during gestation): 4.109 and 4.099 and 4.035 and 4.047 and 4.062 and 4.154
- Probeset 1398208_s_at expression (SSRI exposure during gestation): 6.851 and 6.897 and 7.112 and 6.972 and 6.892 and 7.056
- Probeset 1398486_at expression (SSRI exposure during gestation): 4.355 and 4.744 and 5.032 and 4.741 and 4.49 and 5.709
- Probeset 1398949_at expression (SSRI exposure during gestation): 8.606 and 8.576 and 8.664 and 8.941 and 8.595 and 8.818
- Probeset 1399108_at expression (SSRI exposure during gestation): 7.198 and 7.34 and 7.479 and 7.32 and 7.149 and 7.206
- Probeset 1368198_at expression value [1]: 5.473 and 5.314 and 5.48 and 5.486
- Probeset 1368824_at expression value [1]: 10.44 and 10.31 and 10.75 and 10.8577 and 10.39 and 10.8
- Probeset 1369775_at expression value [1]: 9.454 and 9.493 and 9.497 and 9.711 and 9.436 and 9.608
- Probeset 1370317_at expression value [1]: 8.582 and 8.538 and 9.288 and 9.274 and 9.399 and 9.017
- Probeset 1370918_a_at expression value [1]: 11.48 and 11.57 and 11.99 and 11.82 and 11.71 and 11.77
- Probeset 1371174_s_at expression value [1]: 5.805 and 5.865 and 5.868
- Probeset 1373572_at expression value [1]: 8.281 and 8.071 and 8.726 and 8.553 and 8.626 and 8.452
- Probeset 1373647_at expression value [1]: 8.537 and 8.662 and 9.067 and 8.963 and 8.812 and 8.988
- Probeset 1375178_at expression value [1]: 5.304 and 5.523 and 5.583 and 5.437 and 5.444 and 5.62
- Probeset 1376622_at expression value [1]: 8.516 and 8.814 and 8.398 and 8.068 and 8.494 and 8.379
- Probeset 1376661_at expression value [1]: 8.407 and 8.641 and 7.86 and 7.94 and 7.632 and 8.114
- Probeset 1377365_at expression value [1]: 5.846 and 5.083 and 5.532 and 6.127 and 5.643 and 5.687
- Probeset 1378200_at expression value [1]: 3.755 and 3.651 and 3.848 and 3.847 and 4.036 and 3.882
- Probeset 1378906_at expression value [1]: 3.9529 and 3.997 and 3.87 and 3.96 and 3.996 and 3.763
- Probeset 1379691_at expression value [1]: 5.812 and 5.91 and 6.656 and 6.738 and 5.925 and 6.573
- Probeset 1379822_at expression value [1]: 4.961 and 4.831 and 5.299 and 4.848 and 5.227 and 5.084
- Probeset 1380175_at expression value [1]: 4.934 and 4.975 and 4.85 and 4.93 and 4.966 and 4.859
- Probeset 1381456_at expression value [1]: 5.822 and 5.673 and 5.76 and 5.587 and 5.629 and 5.737
- Probeset 1381492_at expression value [1]: 3.536 and 3.464 and 3.556 and 3.687 and 3.747 and 3.65
- Probeset 1382156_at expression value [1]: 4.178 and 4.6 and 4.28 and 4.232 and 4.706 and 4.384
- Probeset 1382670_at expression value [1]: 8.21 and 8.049 and 7.137 and 7.314 and 7.643 and 7.446
- Probeset 1383054_at expression value [1]: 9.672 and 9.605 and 9.479 and 9.484 and 9.46 and 9.528
- Probeset 1383329_at expression value [1]: 5.299 and 5.567 and 5.281 (2×) and 5.561 and 5.339
- Probeset 1384137_at expression value [1]: 3.89 and 3.899
- Probeset 1384367_at expression value [1]: 5.152 and 5.5769 and 5.098 and 5.103 and 5.137 and 5.449
- Probeset 1384573_at expression value [1]: 9.396 and 9.335 and 9.669 and 9.82 and 10.3 and 9.808
- Probeset 1385074_at expression value [1]: 6.094 and 5.703 and 6.069 and 5.946 and 6.214 and 6.404
- Probeset 1385290_at expression value [1]: 5.664 (2×) and 5.339 and 5.511 and 5.599 and 5.438
- Probeset 1385386_at expression value [1]: 4.05 and 4.2 and 4.368 and 4.404 and 4.111 and 4.351
- Probeset 1385391_at expression value [1]: 5.218 and 4.757 and 4.618
- Probeset 1385790_at expression value [1]: 8.262 and 8.645 and 8.217 and 8.093 and 8.254 and 8.458
- Probeset 1387693_a_at expression value [1]: 4.775 and 5.713 and 5.222 and 5.079 and 4.944 and 5.129
- Probeset 1387694_at expression value [1]: 5.039 and 4.874 and 4.919 and 4.933 and 5.073 and 4.691
- Probeset 1387822_at expression value [1]: 5.838 and 6.319 and 5.874 and 5.79 and 5.5082 and 5.909
- Probeset 1387836_at expression value [1]: 6.664 and 6.515 and 7.321 and 7.12 and 6.632 and 6.906
- Probeset 1387914_at expression value [1]: 7.456 and 7.375 and 7.641 and 7.405 and 7.42 and 7.231
- Probeset 1388131_at expression value [1]: 5.482 and 5.724 and 5.628 and 5.313 and 5.378 and 5.32
- Probeset 1388363_at expression value [1]: 8.48 and 8.558 and 9.033 and 9.198 and 8.642 and 9.018
- Probeset 1388669_at expression value [1]: 7.943 and 7.729 and 8.56 and 8.668 and 8.519 and 8.408
- Probeset 1389213_at expression value [1]: 7.554 and 7.674 and 7.18 and 7.082 and 7.285 and 7.531
- Probeset 1389599_at expression value [1]: 6.535 and 6.776 and 5.918 and 6.015 and 6.327 and 6.205
- Probeset 1390406_at expression value [1]: 10.62 (2×) and 11.01 and 10.93 and 11.3 and 11.1
- Probeset 1390477_at expression value [1]: 5.088 and 5.213 and 4.637 and 4.864 and 4.99 and 4.712
- Probeset 1390592_at expression value [1]: 9.083 and 9.085 and 9.028 and 9.301
- Probeset 1391283_at expression value [1]: 5.168 and 5.671 and 5.216 and 5.355 and 5.486 and 5.461
- Probeset 1391509_at expression value [1]: 7.81 and 8.329 and 7.825 and 7.918 and 8.117 and 8.184
- Probeset 1391678_at expression value [1]: 6.728 and 7.03 and 6.037 and 5.684 and 5.954 and 6.264
- Probeset 1391962_at expression value [1]: 4.079 and 4.011 and 3.937 and 4.018 and 4.024 and 3.918
- Probeset 1393428_at expression value [1]: 6.698 and 6.377 and 7.114 and 7.29 and 7.299 and 6.755
- Probeset 1393438_at expression value [1]: 5.068 and 5.185 and 5.0534 and 5.206 and 4.959 and 5.153
- Probeset 1394343_s_at expression value [1]: 3.666 and 3.629 and 3.872 and 3.785 and 3.852 and 3.841
- Probeset 1394383_at expression value [1]: 5.713 and 6.062 and 5.324 and 5.199 and 5.6 and 5.247
- Probeset 1394887_x_at expression value [1]: 4.063 and 4.143 and 3.656 and 3.536 and 3.475 and 3.919
- Probeset 1395817_at expression value [1]: 6.714 and 6.49 and 6.649
- Probeset 1396130_at expression value [1]: 3.756 and 3.764 and 3.744 and 3.847 and 3.746 and 3.741
- Probeset 1397268_at expression value [1]: 4.565 and 5.072 and 4.482 and 4.73 and 4.645 and 4.567
- Probeset 1397587_at expression value [1]: 6.561 and 6.659 and 6.326 and 6.196 and 6.181 and 6.179
- Probeset 1397934_at expression value [1]: 8.072 and 8.118 and 7.76 and 7.912 and 7.673 and 7.856
- Probeset 1398136_at expression value [1]: 4.139 and 4.205 and 4.178 and 4.175 and 4.278 and 4.212
- Probeset 1398486_at expression value [1]: 5.62 and 5.739 and 6.477 and 7.05 and 7.673 and 6.597
- Probeset 1398949_at expression value [1]: 9.031 and 8.874 and 9.095 and 9.297 and 9.003 and 9.17
- expression, probeset 368199_at (placenta, SSRI-exposed samples): 8.586 and 8.944 and 9.045 and 9.265 and 9.277 and 9.377
- expression, probeset 1367489_at (placenta, SSRI-exposed samples): 7.839 and 8.052 and 7.771 and 7.614 and 7.86 and 7.738
- expression, probeset 1367856_at (placenta, SSRI-exposed samples): 9.745 and 9.797 and 10.22 and 10.51 and 10.38 and 10.14
- expression, probeset 1367866_at (placenta, SSRI-exposed samples): 5.591 and 5.571
- expression, probeset 1367877_at (placenta, SSRI-exposed samples): 9.4471 and 9.923 and 9.622 and 8.883 and 9.902 and 8.73
- expression, probeset 1367978_at (placenta, SSRI-exposed samples): 5.914 and 6.324 and 5.574 and 5.778 and 5.944 and 5.842
- expression, probeset 1368083_at (placenta, SSRI-exposed samples): 8.501 and 8.375 and 9.053 and 8.928 and 9.103 and 8.728
- expression, probeset 1368397_at (placenta, SSRI-exposed samples): 3.806 and 3.897 and 3.87 and 3.843 and 3.78 and 3.762
- expression, probeset 1368542_at (placenta, SSRI-exposed samples): 6.355 and 7.586 and 6.712 and 6.347 and 6.563 and 7.001
- expression, probeset 1368646_at (placenta, SSRI-exposed samples): 5.644 and 5.882 and 5.515 and 5.483 and 5.352 and 5.292
